Eight molecules from PubChem BioAssay (NCI) can be followed below.

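Cultured in 96-well plates, cells were exposed to test compound for 48 hours across five concentrations. TGI marks complete inhibition of growth.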

Some test systems named below: BT-549 breast; HCT-116 colon; HOP-62 NSCLC; HOP-92 NSCLC; HT29 colon; MDA-MB-435; NCI-H23 lung; OVCAR-5 ovarian; OVCAR-8 ovarian; RPMI-8226 leukemia; SF-268 CNS; SF-295 CNS; SK-MEL-2 melanoma; SK-MEL-28 melanoma; SN12C renal; SNB-75 CNS; SR leukemia; UACC-62 melanoma; RXF 393 renal.
Common to all, as to experiment: growth of human tumour cells (NCI), 48 h

`CCOC(=O)C1C(c2ccc(OC)cc2)c2c([nH][nH]c2=O)CC1(C)O` (stereo not given): the TGI in the assay on BT-549 breast, in the assay on HCT-116 colon, with HOP-62 NSCLC, in the assay with HOP-92 NSCLC, with HT29 colon and in the assay on MDA-MB-435 was more than 100 µM each time. The TGI in the assay with NCI-H23 lung, in the assay with OVCAR-5 ovarian, in the assay with OVCAR-8 ovarian, with RPMI-8226 leukemia, in the assay with SF-268 CNS and in the assay on SF-295 CNS was more than 100 µM in each case. The TGI with SK-MEL-2 melanoma, in the assay on SK-MEL-28 melanoma, in the assay with SN12C renal, with SNB-75 CNS, with SR leukemia and in the assay with UACC-62 melanoma was more than 100 µM in each case.
`COC(=O)c1c(C)c2c(c(C)c1C(=O)OC)-c1c(C)ccc3ccc(C)c-2c13`: the TGI in the assay with BT-549 breast is more than 100 µM; with HCT-116 colon it was more than 100 µM; in the assay with HOP-62 NSCLC, more than 100 µM; in the assay on HT29 colon, 29.6 µM; with MDA-MB-435, more than 100 µM; with OVCAR-5 ovarian, more than 100 µM. In addition, the TGI in the assay with OVCAR-8 ovarian was more than 100 µM; with RPMI-8226 leukemia, more than 100 µM; with RXF 393 renal, more than 100 µM; in the assay on SF-268 CNS, more than 100 µM; in the assay with SF-295 CNS, more than 87.1 µM; in the assay with SK-MEL-2 melanoma it was more than 100 µM. Moreover, the TGI in the assay on SK-MEL-28 melanoma was more than 100 µM; in the assay with SN12C renal, more than 100 µM; with SNB-75 CNS it was more than 100 µM; in the assay with SR leukemia it was 46.9 µM; with UACC-62 melanoma, more than 100 µM.
Consider `c1ccc(Cn2c(-c3ccc(-c4ccccc4)cc3)cc3ccccc32)cc1`, for which the TGI in the assay on BT-549 breast, in the assay with HCT-116 colon, in the assay with HOP-62 NSCLC, in the assay with HOP-92 NSCLC, in the assay with HT29 colon and in the assay with MDA-MB-435 was more than 100 µM throughout. Besides, the TGI in the assay with NCI-H23 lung, in the assay on OVCAR-5 ovarian, in the assay with OVCAR-8 ovarian, with RPMI-8226 leukemia, in the assay with SF-268 CNS and in the assay on SF-295 CNS was more than 100 µM throughout. Further, the TGI in the assay on SK-MEL-2 melanoma, with SK-MEL-28 melanoma, in the assay with SN12C renal, in the assay on SNB-75 CNS, in the assay with SR leukemia and with UACC-62 melanoma was more than 100 µM each time.
Take `Cc1cn(Cc2cccc(C3=NCCCN3)c2)c(=O)n(Cc2cccc(C3=NCCCN3)c2)c1=O`: the TGI with BT-549 breast, with HCT-116 colon, with HOP-62 NSCLC, in the assay on HOP-92 NSCLC, in the assay with MDA-MB-435 and in the assay on NCI-H23 lung was more than 100 µM each time. The TGI in the assay with OVCAR-5 ovarian, in the assay on OVCAR-8 ovarian, in the assay on RPMI-8226 leukemia, in the assay with SF-268 CNS, in the assay on SF-295 CNS and in the assay with SK-MEL-2 melanoma was more than 100 µM in each case. In addition, the TGI in the assay with SK-MEL-28 melanoma, with SN12C renal, with SNB-75 CNS, with SR leukemia and with UACC-62 melanoma was more than 100 µM each time.
Regarding `CCC1(CC)N=C(C(F)(F)F)c2cc(C(=O)C(F)(F)F)c3ccccc3c2N1`, the TGI in the assay on BT-549 breast was 29 µM; with HCT-116 colon, 16.1 µM; with HOP-62 NSCLC, 28.5 µM; with HOP-92 NSCLC, 10.2 µM; with HT29 colon, 81.4 µM; in the assay with MDA-MB-435 it was more than 100 µM. Besides, the TGI was 11.2 µM with NCI-H23 lung; 58.1 µM with OVCAR-5 ovarian; more than 100 µM in the assay on OVCAR-8 ovarian; 9.87 µM in the assay on RXF 393 renal; 27 µM in the assay on SF-268 CNS; 9.6 µM in the assay with SF-295 CNS. The TGI came out at 10.4 µM with SK-MEL-2 melanoma; 52.2 µM in the assay with SK-MEL-28 melanoma; 13.7 µM with SN12C renal; 23 µM in the assay with SNB-75 CNS; 9.36 µM in the assay with SR leukemia; 13.3 µM in the assay with UACC-62 melanoma.
As to `CN(C)c1ccc(/C=N/c2nc3cc4sc(/N=C/c5ccc(N(C)C)cc5)nc4cc3s2)cc1`, the TGI in the assay on BT-549 breast, in the assay on HCT-116 colon, in the assay on HOP-62 NSCLC, in the assay with HOP-92 NSCLC, in the assay with HT29 colon and in the assay with MDA-MB-435 was more than 100 µM in each case. Also, the TGI in the assay on NCI-H23 lung, in the assay on OVCAR-5 ovarian, in the assay with OVCAR-8 ovarian, in the assay on RPMI-8226 leukemia, with SF-268 CNS and in the assay with SF-295 CNS was more than 100 µM each time. For the same molecule, the TGI in the assay with SK-MEL-2 melanoma, in the assay on SK-MEL-28 melanoma, in the assay with SN12C renal, in the assay with SNB-75 CNS, with SR leukemia and in the assay on UACC-62 melanoma was more than 100 µM each time.
In the case of `OCCCCn1cc(Cn2ncc3c(NCc4ccccc4)ncnc32)nn1`, the TGI in the assay with BT-549 breast, with HCT-116 colon, in the assay with HOP-62 NSCLC, in the assay on HOP-92 NSCLC, in the assay with HT29 colon and with MDA-MB-435 was more than 100 µM in each case. Besides, the TGI in the assay with NCI-H23 lung, with OVCAR-5 ovarian, with OVCAR-8 ovarian, with RPMI-8226 leukemia, with RXF 393 renal and in the assay on SF-268 CNS was more than 100 µM each time. The TGI with SF-295 CNS, in the assay on SK-MEL-2 melanoma, in the assay on SK-MEL-28 melanoma, with SN12C renal, with SR leukemia and in the assay on UACC-62 melanoma was more than 100 µM each time.
Take `CS(=O)(=O)OCCCSCCSCCCOS(C)(=O)=O`: the TGI in the assay with BT-549 breast, in the assay on HCT-116 colon, in the assay with HOP-62 NSCLC, with HOP-92 NSCLC, with HT29 colon and in the assay with MDA-MB-435 was more than 100 µM throughout. The TGI in the assay with NCI-H23 lung, in the assay with OVCAR-5 ovarian, in the assay with OVCAR-8 ovarian, with SF-268 CNS, with SF-295 CNS and with SK-MEL-28 melanoma was more than 100 µM throughout. For the same molecule, the TGI with SN12C renal, in the assay with SNB-75 CNS, with SR leukemia and in the assay on UACC-62 melanoma was more than 100 µM throughout.
